Measured values reported in patent publication US20130224239A1, “ALCOHOLIC EXTRACT OF FUNGI OF GENUS […] AND USE THEREOF” (KING SAUD UNIVERSITY, priority 2011, published 2013).
Values after ≈ are worked out from the molar mass of the structure shown. Where two headings read alike, the source gives them in different places. Marks after values point to notes of the source that are not given here.

What was measured:
[1] = test system: Aspergillus fumigatus (RCMB 2003); experiment: Antimicrobial screening, disc diffusion; format: cell-based; conditions: for Diameter of inhibition zone: compounds isolated from Cunninghamella elegans; for zone of inhibition at 1000 µg/mL: RCMB2003, Standard Antibiotics (1 mg/ml), read-out: Diameter of inhibition zone
Procedure: (§1) The alcoholic extracts obtained were used for testing their antimicrobial activity. Each extract (0.5 g) was dissolved in 10 ml water. Same concentrations for the successive extracts (using diethyl ether, chloroform, ethyl acetate and n-butanol) were also prepared.
(§2) The representatives of Gram negative bacteria, namely Salmonella typhimuium (RCMB 0104), Escherichia coli (RCMB 0103), Pseudomonas aeruginosa (RCMB 0102) and Gram positive bacteria, namely Bacillus subtilis (RCMB 0107), Staphylococcus aureus (RCMB 0106), Streptococcus pyogenes (RCMB 0109), unicellular fungi, namely Candida albicans (RCMB 5002) and filamentous fungi, namely Aspergillus fumigatus (RCMB 2003) and Penicllium expansum (RCMB 1006) were used as test organisms (RCMB: The Regional Center for Mycology and Biotechnology, Al-azhar University Nasser City, Cairo, Egypt).
(§3) For antimicrobial screening the well known disc diffusion and agar well diffusion methods were used, together with the determination of minimum inhibitory concentration (MIC), see Duguid et al., Microbial Infections, The English Language Book Society, Churchill Livingston, Edingburgh, London, 1978; vol. 1, page 110.
(§4) Disc diffusion method: The agar disc diffusion method is employed for the determination of antimicrobial activities of the extracts of the investigated fungal species. Sterilized paper discs (Whatman No. 1) ([…]) were separately soaked in the extracts and transferred onto the surface of growth media seeded with the test organism. After incubation period, following suitable conditions for the test organism, the diameter of the inhibition zone around the discs was measured in millimeters. The obtained result was the mean of three experiments.
(§5) Each fungal species was grown on malt extract media at 28±2° C. for 14 days. The metabolites of the fungal species were screened for antimicrobial activity. The inhibition zones around each disc were measured, in millimeter, and recorded (Tables 1).

[2] = test system: Bacillus subtilis (RCMB 0107); experiment: Antimicrobial screening, disc diffusion; format: cell-based
Procedure: as §1, §2, §3, §4, §5

[3] = test system: Candida albicans (RCMB 5002); experiment: Antimicrobial screening, disc diffusion; format: cell-based; conditions: for Diameter of inhibition zone: compounds isolated from Cunninghamella elegans; for zone of inhibition at 1000 µg/mL: RCMB5002, Standard Antibiotics (1 mg/ml), read-out: Diameter of inhibition zone
Procedure: as §1, §2, §3, §4, §5

[4] = test system: Escherichia coli (RCMB 0103); experiment: Antimicrobial screening, disc diffusion; format: cell-based
Procedure: as §1, §2, §3, §4, §5

[5] = test system: Penicllium expansum (RCMB 1006); experiment: Antimicrobial screening, disc diffusion; format: cell-based; conditions: Penicillium expansum; for Diameter of inhibition zone: compounds isolated from Cunninghamella elegans; for zone of inhibition at 1000 µg/mL: RCMB1006, Standard Antibiotics (1 mg/ml), read-out: Diameter of inhibition zone
Procedure: as §1, §2, §3, §4, §5

[6] = test system: Pseudomonas aeruginosa (RCMB 0102); experiment: Antimicrobial screening, disc diffusion; format: cell-based; conditions: Pseudomonas aeurginosa
Procedure: as §1, §2, §3, §4, §5

[7] = test system: Staphylococcus aureus (RCMB 0106); experiment: Antimicrobial screening, disc diffusion; format: cell-based
Procedure: as §1, §2, §3, §4, §5

[8] = test system: Streptococcus pyogenes (RCMB 0109); experiment: Antimicrobial screening, disc diffusion; format: cell-based
Procedure: as §1, §2, §3, §4, §5

[9] = test system: Salmonella typhimuium (RCMB 0104); experiment: Antimicrobial screening, disc diffusion; format: cell-based; conditions: Salmonella typhimuim
Procedure: as §1, §2, §3
as §4, with “millimeters.” for “millimeters. The obtained result was the mean of three experiments.”
Each fungal species was grown on malt extract media at 28±2° C. for 14 days. The metabolites of the fungal species were screened for antimicrobial activity.

[10] = test system: Staphylococcus aureus infected wounds; experiment: Wound healing activity, excision wound model; format: in vivo, guinea pig
Procedure: Swiss albino mice (20-25 g), male Sprague-Dawley rats (160-180 g) and male guinea pigs (240-260 g) were employed in the study. The animals were left for 2 weeks at room conditions to ensure stabilization before use. They were maintained on standard pellet diet and water ad libitum throughout the experiment. • a) Acute Toxicity: Mice were divided into groups of 6 and the methanol extracts of C. blakesleeana, C. elegans and C. homothallica were administered orally in increasing doses. […] Rats of the 1^St group were given a vehicle (1% v/v Tween 80) in a dose of 5 ml kg^−1 and left as normal control. Rats of the 2nd, 3rd, and 4th groups were administered the methanol extracts of C. blakesleeana, C. elegans and C. homothallica, respectively in a dose of 200 mg kg^−1. All medications were administered orally via the aid of an oral tube for 35 days. […] At the end of the experimental period, blood samples (2 mL) were collected from the retro-orbital venous plexus of each rat (under ether anesthesia) into clean centrifuge tubes. The blood samples were allowed to clot at room temperature for 30 min after which they were centrifuged at 10,000 rpm for 5 minutes. Sera were separate with Pasteur pipette into sterile serum sample tubes and used for biochemical assay.
Measurement of Liver and Kidney Function Markers: • Liver functions were evaluated by measuring the serum activity of aspartate aminotransferase (AST) and alanine aminotransferase (ALT) following the method of Reitman and Frankel, Am. J. Clin. Path., 28: 55-60, alkaline phosphatase enzyme (ALP) by the method of Babson et al., Clinical Chemistry, 12: 482-490. Serum levels of total bilirubin, total proteins and albumin were also assayed. Globulin was obtained from the difference between total proteins and albumin. Serum concentrations of uric acid, urea and creatinine were determined colormetrically as measures of kidney functions. All measurements were carried out by protocols well known in the art. • c) Wound Healing Activity: The excision wound model was used to monitor wound contraction and wound closure time. Four groups of male guinea pigs were used in the experiment with 6 animals in each group. At the beginning of the experiment, the dorsal skin of each guinea pig was shaved with an electric clipper. After 24 hours, all animals were anesthetized by diethyl ether and the shaved areas were sterilized with 70% alcoholic solution. A predetermined dorsal area (15 mm×20 mm) was inflicted by cutting away a full thickness of skin (2 mm depth) using toothed forceps, scalpel and pointed scissors. A fresh surgical blade was used for the perpendicular cut in each animal and tension of skin was kept constant during the procedure. Local infection with Staphylococcus aureus was introduced into wounds using 0.5 mL of 10^8 bacteria mL^−1 inoculums. The wounds were left undressed to the open environment and the animals were kept individually in separate cages. • Wounds treatment: Wounds were air exposed and treatment began 24 h after injury. Wounds of the control animals were treated with the vehicle (1% v/v Tween 80). Guinea pigs of the second and third group were treated with total alcohol extract of C. elegans and the isolated compound (adenosine) in a concentration of 5 mg mL^−1, while animals of the fourth group were medicated with latamoxef (Moxalactam)® in a concentration of 30 μg mL^−1 (Reference group). The vehicle, extract, and reference drug were applied topically on the wound surface once a day for 18 days. […] of each tested material was applied slowly, using an insulin syringe, from the central point extending outside the wound area to ensure inclusion of the edges. Swabs were taken on day 5 to confirm the presence of the expected organisms in the pus. • Assessment of wound healing: The wound areas were measured while the animals were under anaesthesia on days 0, 4, 7, 10, 14, and 18 post-wounding by tracing the wound areas onto a transparent tracing paper. […]

Staphylococcus aureus = experiment: Minimum inhibitory concentration, agar well diffusion; format: cell-based; conditions: for MIC: read-out: Minimum inhibitory concentration
From the text: as §3
Agar well diffusion method: On the other hand, the agar well diffusion method was employed for determination of the minimum inhibitory concentration (MIC). The test organisms were separately seeded in the agar medium. The wells (10 mm in diameter) were cut from the agar and […] (different concentrations) was transferred into them. After incubation period, following suitable conditions for the test organism, the diameter of the inhibition zone around the discs was measured in millimeters. The obtained result was the mean of three experiments.
The minimum inhibitory concentration (MIC) of Cunninghamella blakesleeana, C. elegans, C. homothallica and successive extracts and isolated compounds of Cunninghamella elegans against Staphylococcus aureus was determined.
Minimum inhibitory concentration (MIC): The lowest concentration of an antimicrobial agent that will inhibit a visible growth of a microorganism after overnight incubation.

[11] = compounds isolated from Cunninghamella elegans
[12] = topical 30 μg mL^−1 once a day, n = 6
[13] = topical 30 μg mL^−1 once a day, n = 6, listed as latamoxef

Compound	Diameter of inhibition zone [1]	Diameter of inhibition zone [2, 11]	Diameter of inhibition zone [3]	Diameter of inhibition zone [4, 11]	Diameter of inhibition zone [5]	Diameter of inhibition zone [6, 11]	Diameter of inhibition zone [7, 11]	Diameter of inhibition zone [8, 11]	other results
CCCCCCCC/C=C\CCCCCCCC(=O)O [Compound 2, oleic acid]	00.0 mm	00.0 mm	00.0 mm	00.0 mm	00.0 mm	00.0 mm	11.0 ± 0.3 mm	00.0 mm	Diameter of inhibition zone [9, 11]: 00.0 mm
CCC(C)n1ncn(-c2ccc(N3CCN(c4ccc(OCC5COC(Cn6cncn6)(c6ccc(Cl)cc6Cl)O5)cc4)CC3)cc2)c1=O (stereo not shown) [Itraconazole, reference compound]									zone of inhibition at 1000 µg/mL [1]: 28 ± 0.5 mm; zone of inhibition at 1000 µg/mL [3]: 26 ± 0.2 mm; zone of inhibition at 1000 µg/mL [5]: 27 ± 0.1 mm
CO[C@@]1(NC(=O)C(C(=O)O)c2ccc(O)cc2)C(=O)N2C(C(=O)O)=C(CSc3nnnn3C)CO[C@@H]21 (stereo partly shown) [Latamoxef, latamoxef, reference compound]									wound contraction ([10]; Day 14, topical 30 μg mL^−1): 100%; Wound area on day 0 ([10]; day 0, topical 30 μg mL^−1 once a day, n = 6): 300 ± 0.0 mm^2; Wound area on day 4 ([10]; day 4, topical 30 μg mL^−1 once a day, n = 6): 219.4 ± 9.37** mm^2; Wound area on day 7 ([10]; day 7, topical 30 μg mL^−1 once a day, n = 6): 146.4 ± 5.60*** mm^2; Wound area on day 10 [10, 12]: 42.6 ± 1.85*** mm^2; Wound area on day 10 [10, 13]: 42.6±1.85 mm^2; Wound area on day 14 [10, 12]: 0.0 ± 0.0 mm^2; Wound area on day 14 [10, 13]: 0.0 mm^2
CN[C@H](CC(C)C)C(=O)N[C@H]1C(=O)N[C@@H](CC(N)=O)C(=O)N[C@H]2C(=O)N[C@H]3C(=O)N[C@H](C(=O)N[C@H](C(=O)O)c4cc(O)cc(O)c4-c4cc3ccc4O)[C@H](O)c3ccc(c(Cl)c3)Oc3cc2cc(c3O[C@@H]2O[C@H](CO)[C@@H](O)[C@H](O)[C@H]2O[C@H]2C[C@](C)(N)[C@H](O)[C@H](C)O2)Oc2ccc(cc2Cl)[C@H]1O [Vancomycin, reference compound]									MIC (Staphylococcus aureus; Staphylococcus aureus): 0.75 µg/mL (≈ 0.518 µM)
Gentamicin [reference compound]									Minimum inhibitory concentration (Staphylococcus aureus; against Staphylococcus aureus): 0.35 µg/mL
CCCCCCCCCCCCCCCC(=O)O [Compound 1, palmitic acid]	00.0 mm	00.0 mm	00.0 mm	00.0 mm	00.0 mm	00.0 mm	13.0 mm	00.0 mm	Diameter of inhibition zone [9, 11]: 00.0 mm
O=C(O)c1cc(O)c(O)c(O)c1 [Compound 7, 3,4,5-trihydroxy-benzoic acid]	00.0 mm	00.0 mm	00.0 mm	00.0 mm	00.0 mm	00.0 mm	05.0 ± 0.5 mm	00.0 mm	MIC (Staphylococcus aureus; against Staphylococcus aureus): 130 µg/mL (≈ 764 µM)
CCCCCCCCCCCCCCCCCC(=O)O [Compound 3, stearic acid]	00.0 mm	00.0 mm	00.0 mm	00.0 mm	00.0 mm	00.0 mm	15.0 ± 0.5 mm	00.0 mm	Diameter of inhibition zone [9, 11]: 00.0 mm
Clc1ccccc1C(c1ccccc1)(c1ccccc1)n1ccnc1 [Clotrimazole, reference compound]									zone of inhibition at 1000 µg/mL [1]: 26 ± 0.1 mm; zone of inhibition at 1000 µg/mL [3]: 18 ± 0.1 mm; zone of inhibition at 1000 µg/mL [5]: 23 ± 0.3 mm
[H]/N=C(/N)N[C@H]1[C@H](O)[C@@H](O)[C@H](O[C@@H]2O[C@@H](C)[C@](O)(C=O)[C@H]2O[C@@H]2O[C@@H](CO)[C@H](O)[C@@H](O)[C@@H]2NC)[C@@H](N/C(N)=N\[H])[C@@H]1O [Streptomycin, reference compound]									Diameter of inhibition zone ([2]; Standard Antibiotics (1 mg/ml)): 29.0 ± 0.4 mm; Diameter of inhibition zone ([4]; Standard Antibiotics (1 mg/ml)): 25.0 ± 0.3 mm; Diameter of inhibition zone ([6]; Standard Antibiotics (1 mg/ml)): 24.0 ± 0.1 mm; Diameter of inhibition zone ([7]; Standard Antibiotics (1 mg/ml)): 25.0 ± 0.2 mm; Diameter of inhibition zone ([8]; Standard Antibiotics (1 mg/ml)): 24.0 ± 0.4 mm; Diameter of inhibition zone ([9]; Standard Antibiotics (1 mg/ml)): 28.0 ± 0.3 mm
CC1(C)S[C@@H]2[C@H](NC(=O)Cc3ccccc3)C(=O)N2[C@H]1C(=O)O [Penicillin G, reference compound]									Diameter of inhibition zone ([2]; Standard Antibiotics (1 mg/ml)): 32.5 ± 0.5 mm; Diameter of inhibition zone ([4]; Standard Antibiotics (1 mg/ml)): 33.5 ± 0.8 mm; Diameter of inhibition zone ([6]; Standard Antibiotics (1 mg/ml)): 28.3 ± 0.1 mm; Diameter of inhibition zone ([7]; Standard Antibiotics (1 mg/ml)): 29.5 ± 0.8 mm; Diameter of inhibition zone ([8]; Standard Antibiotics (1 mg/ml)): 31.4 ± 0.1 mm; Diameter of inhibition zone ([9]; Standard Antibiotics (1 mg/ml)): 34.3 ± 0.4 mm
